Results reported in patent publication US20190192524A1, “Modulators of Caspase-6” (The University of British Columbia, priority 2014, published 2019).

Tests used:
[1] = target: T1, full-length human caspase-6 (Homo sapiens, UniProt P55212); test: Western blot of Htt fragments in COS-7 cells co-transfected with Htt 1-1212AA and full-length caspase-6; format: cell-based; settings: 10 uM compound, 24 hr, vs DMSO
T1 construct: DDK-tag (C); expressed in transfected cells; host or cells: COS-7
T1 sequence (P55212 with tags, fused parts or gaps): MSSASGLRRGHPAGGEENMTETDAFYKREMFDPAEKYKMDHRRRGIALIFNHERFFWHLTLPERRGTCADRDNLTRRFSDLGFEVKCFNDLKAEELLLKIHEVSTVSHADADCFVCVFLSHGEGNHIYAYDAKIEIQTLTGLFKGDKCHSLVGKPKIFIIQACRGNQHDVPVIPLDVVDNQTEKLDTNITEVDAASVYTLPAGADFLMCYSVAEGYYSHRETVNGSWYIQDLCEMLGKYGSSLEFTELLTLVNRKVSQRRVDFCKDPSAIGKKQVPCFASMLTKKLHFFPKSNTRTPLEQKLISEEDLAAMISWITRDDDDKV
Protocol: COS-7 cells were co-transfected with the 1212 amino acid HTT fragment (SEQ ID NO: 3) and the full length human caspase-6 enzyme (SEQ ID NO:4). The co-transfected cells were exposed to either 10 uM of the PG3d compound, 3 uM of the Q-VD-Oph pan-caspase inhibitor or were treated with DMSO as a control. An aliquot of the cell lysates were subjected to Western blotting to detect HTT fragments with the Htt antibody 2166 (Millipore) and the presence of caspase-6 was detected using the HD91 antibody (Ehrnhoefer et al, HMG, 2014. 23(3):717-29). The remaining cell lysates (500 ug protein) were immunoprecipitated with 5 ug of Caspase-6 antibody for 16 hrs at 4 C. The immunoprecipitated proteins were then applied to acrylamide gels and immunoblotted to detect either the HTT fragments or the presence of the active caspase 6 enzyme using the antibodies described above.
Cos-7 cells were co-transfected with Htt 1-1212AA (SEQ ID NO:3) and full-length human caspase-6 (SEQ ID NO:6), and exposed to either the pan-caspase inhibitor Q-VD-OPh, the PG3d compound or DMSO as a negative control. As shown in the upper panel of FIG. 9A, control cells that received DMSO alone (lanes labelled n.t.) show the presence of the Htt 1212AA protein and the Htt proteolytic cleavage fragments including the 586, 552 and 513 amino acid fragments. […]

[2] = target: T2, human caspase 6 lacking the pro-domain (Homo sapiens, UniProt P55212); test: Intracellular Htt cleavage by Western blot in co-transfected COS-7 cells; format: cell-based; design: DDK-tag (C); expressed in transfected cells; host or cells: COS-7
T2 sequence (P55212 with tags, fused parts or gaps): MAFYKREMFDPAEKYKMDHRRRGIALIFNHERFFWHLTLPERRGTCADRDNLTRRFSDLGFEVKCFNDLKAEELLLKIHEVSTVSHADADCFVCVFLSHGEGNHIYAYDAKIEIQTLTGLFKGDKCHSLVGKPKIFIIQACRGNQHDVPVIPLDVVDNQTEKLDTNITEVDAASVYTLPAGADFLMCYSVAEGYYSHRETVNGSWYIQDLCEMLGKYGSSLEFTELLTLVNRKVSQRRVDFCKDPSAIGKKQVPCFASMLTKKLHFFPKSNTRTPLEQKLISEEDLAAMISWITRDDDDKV
Protocol: COS-7 cells were co-transfected with the 4c htt fragment and the human caspase-6 lacking the pro-domain which leads to fast autoactivation of the caspase-6 enzyme and the generation of the 586 aa Htt cleavage fragment. The co-transfected cells were exposed to either 10 uM of the PG3d compound, 3 uM of the Q-VD-Oph pan-caspase inhibitor or were left untreated. Non-transfected cells were included as a negative control and the purified 586 aa Htt fragment was included as a positive control. Cell lysates were subjected to Western blotting and the 586AA fragment generated intracellularly was detected with Htt antibody 2166 (Millipore). Caspase-6 expression and activation was assessed by Western blotting using antibody HD91 (Ehrnhoefer et al, HMG, 2014. 23(3):717-29).
COS-7 cells were co-transfected with the 4c htt fragment and the human caspase-6 lacking the pro-domain which leads to fast autoactivation of the caspase-6 enzyme and the generation of the 586 aa Htt cleavage fragment. […] Non-transfected cells were included as a negative control and the purified 586 aa Htt fragment was included as a positive control. […] The cell lysates were also assayed for the levels of active caspase 6 enzyme as shown in the lower panel of FIG. 5B.

O=c1oc(C#Cc2ccccc2)nc(O)c1Cc1ccccc1 [PG-3d, 5-Benzyl-4-hydroxy-2-(phenylethynyl)-6H-1,3-oxazin-6-one]
level of the 586AA Htt fragment [1]: reduction | level of active caspase 6 enzyme ([2]; 10 uM compound): decreased amount of active enzyme | generation of the 586 aa Htt cleavage fragment ([2]; 10 uM compound vs untreated cells): significant reduction
